{"source": "patent US20190374526A1", "about": "“Substituted Heterocyclic Compounds as Inhibitors of PRDM9” (Merck Sharp & Dohme Corp., priority 2018, published 2019)"}
{"biological_target": "T1, hPRDM9 (amino acids 195-385) (Homo sapiens, UniProt Q9NQV7)", "T1 construct": "1.25 nM hPRDM9 (amino acids 195-385)", "T1 sequence (Q9NQV7 195-385)": "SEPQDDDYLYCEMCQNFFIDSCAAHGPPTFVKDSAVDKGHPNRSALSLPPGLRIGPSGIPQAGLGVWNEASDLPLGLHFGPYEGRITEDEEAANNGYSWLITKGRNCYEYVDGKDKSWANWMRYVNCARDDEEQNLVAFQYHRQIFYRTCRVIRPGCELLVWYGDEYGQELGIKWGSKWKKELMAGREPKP", "experiment": "PRDM9 biochemical assay (radiometric, 3[H] methyl transfer from SAM to biotinylated histone H3 peptide)", "conditions": "1 nM hPRDM9, 1 μM biotinylated H3(1-25)K4 peptide, 5 μM 3[H]-SAM, 55 μM un-labeled SAM, 25° C., 30 minutes", "experimental": "The PRDM9 biochemical assay was carried out using a radiometric format involving the transfer of ^3[H] methyl group from S-adenosyl methionine (SAM) to a biotinylated histone H3 peptide (H3(1-25)K4). 10 mM compounds in DMSO were diluted 20 fold in assay buffer (10 mM Tris-HCl, pH 8.5, 10 mM DTT, and 0.01% Triton X-100) before adding […] to a well in a 384 well polypropylene microplate plate and adding 8 μl of reaction mix (1.25 nM hPRDM9 (amino acids 195-385), 1.25 μM biotinylated H3 peptide in assay buffer). The ^3[H]-SAM and cold SAM stock solutions were diluted to 50 μM and 550 μM respectively in assay buffer before aliquoting 1 μl of 50 μM ^3[H]-SAM, 550 μM SAM into each well to initiate the reaction. The assay was performed at 25° C. at the final concentrations of 1 nM hPRDM9, 1 μM peptide, 5 μM ^3[H]-SAM, and 55 μM un-labeled SAM in assay buffer. The reaction was quenched after 30 minutes by adding 25 μl 7.5 M Guanidine-HCl. Quenched reactions were transferred to streptavidin coated Flashplates, diluted two fold in assay buffer, incubated for 1 hour, and read on a Perkin Elmer Topcount instrument. Compound activity was expressed relative to activity of 0.5% (v/v) DMSO treated samples and fit to a four parameter logistic equation to determine IC50 values.", "units": {"IC50": "µM"}}
{"smiles": "COc1cc(OC)cc(-c2noc(N3CCN(C)C4(CN(c5ccnc(C)c5)C4)C3)n2)c1", "note": "[Compound 164]", "IC50": 0.315}
{"smiles": "COc1cccc(-c2noc(N3CCOC4(CCN(c5ccnc(C)c5)CC4)C3)n2)c1", "note": "[Compound 166]", "IC50": 0.8}
{"smiles": "COc1cccc(-c2noc(N3CC4CC4(CNc4ccnc(C)c4)C3)n2)c1", "note": "(centres unmarked) [Compound 167]", "IC50": 23}
{"smiles": "Cc1cc(NCC23CC2CN(c2nc(-c4cc(Cl)cc(Cl)c4)no2)C3)ccn1", "note": "(centres unmarked) [Compound 168]", "IC50": 9}
{"smiles": "COc1cccc(-c2noc(N3CCOC(CCNc4ccnc(C)c4)C3)n2)c1", "note": "(centres unmarked) [Compound 169]", "IC50": 2}
{"smiles": "Cc1cc(NCCC2CN(c3nc(-c4cc(Cl)cc(Cl)c4)no3)CCO2)ccn1", "note": "(centres unmarked) [Compound 170]", "IC50": 0.4}
{"smiles": "COc1cccc(-c2noc(N3CCC(CCNc4ccnc(C)c4)C3)n2)c1", "note": "(centres unmarked) [Compound 171]", "IC50": 4}
{"smiles": "Cc1cc(NCC2CC(C)N(c3nc(-c4cc(Cl)cc(Cl)c4)no3)C2)ccn1", "note": "(centres unmarked) [Compound 172]", "IC50": 5.29}
{"smiles": "Cc1cc(NCC2CC(C)N(c3nc(-c4cc(Cl)cc(Cl)c4)no3)C2)ccn1", "note": "(centres unmarked) [Compound 173]", "IC50": 5.5}
{"smiles": "Cc1cc(NCC2CN(c3nc(-c4cc(Cl)cc(Cl)c4)no3)CCC2C)ccn1", "note": "(centres unmarked) [Compound 174]", "IC50": 1.58}
{"smiles": "Cc1cc(NCCC2CN(c3nc(-c4cc(Cl)cc(Cl)c4)no3)c3ccccc32)ccn1", "note": "(centres unmarked) [Compound 175]", "IC50": 3.81}
{"smiles": "Cc1cc(NCC2CN(c3nc(-c4cc(Cl)cc(Cl)c4)no3)CCC2C)ccn1", "note": "(centres unmarked) [Compound 176]", "IC50": 13.6}
{"smiles": "Cc1cc(NC2CCC3CN(c4nc(-c5cc(Cl)cc(Cl)c5)no4)CC32)ccn1", "note": "(centres unmarked) [Compound 177]", "IC50": 8.64}
{"smiles": "Cc1cc(NC2CCC3CN(c4nc(-c5cc(Cl)cc(Cl)c5)no4)CC32)ccn1", "note": "(centres unmarked) [Compound 178]", "IC50": 1.15}
{"smiles": "COc1cc(OC)cc(-c2noc(N3Cc4ccccc4C4(CCN(c5ccnc(C)c5)CC4)C3)n2)c1", "note": "[Compound 180]", "IC50": 0.08}
{"smiles": "COc1cc(OC)cc(-c2noc(N3CC(c4ccccc4)OC4(CCN(c5ccnc(C)c5)CC4)C3)n2)c1", "note": "(centres unmarked) [Compound 181]", "IC50": 2.14}
{"smiles": "COc1cc(OC)cc(-c2noc(N3CCCC4(CN(c5ccnc(C)c5)C4)C3)n2)c1", "note": "[Compound 182]", "IC50": 0.163}
{"smiles": "COc1cc(OC)cc(-c2noc(N3CC(F)(F)OC4(CCN(c5ccnc(C)c5)CC4)C3)n2)c1", "note": "[Compound 184]", "IC50": 0.814}
{"smiles": "COc1cc(OC)cc(-c2noc(N3CCC(O)C4(CCN(c5ccnc(C)c5)CC4)C3)n2)c1", "note": "(centres unmarked) [Compound 186]", "IC50": 0.217}
{"smiles": "COc1cc(OC)cc(-c2noc(N3CCCC4(CCN(c5cc(C)nc(F)c5)CC4)C3)n2)c1", "note": "[Compound 188]", "IC50": 45}
{"smiles": "COc1cc(N2CC3(CCCN(c4nc(-c5cc(Cl)cc(Cl)c5)no4)C3)C2)ccn1", "note": "[Compound 193]", "IC50": 2}
{"smiles": "Clc1cc(Cl)cc(-c2noc(N3CCCC4(CN(c5cccnn5)C4)C3)n2)c1", "note": "[Compound 196]", "IC50": 19}
{"smiles": "N#Cc1ccnc(N2CC3(CCCN(c4nc(-c5cc(Cl)cc(Cl)c5)no4)C3)C2)c1", "note": "[Compound 197]", "IC50": 2}
{"smiles": "OCc1ncc(N2CC3(CCCN(c4nc(-c5cc(Cl)cc(Cl)c5)no4)C3)C2)cn1", "note": "[Compound 200]", "IC50": 19}
{"smiles": "Clc1cc(Cl)cc(-c2noc(N3CCCC4(CN(c5cnccn5)C4)C3)n2)c1", "note": "[Compound 202]", "IC50": 2}
{"smiles": "Clc1cc(Cl)cc(-c2noc(N3CCCC4(CN(c5ccncc5)C4)C3)n2)c1", "note": "[Compound 203]", "IC50": 1}
{"smiles": "Cc1cc(N2CC3(CCCN(c4nc(-c5cc(Cl)cc(Cl)c5)no4)C3)C2)cc(C)n1", "note": "[Compound 205]", "IC50": 0.16}
{"smiles": "CC(C)c1cc(N2CC3(CCCN(c4nc(-c5cc(Cl)cc(Cl)c5)no4)C3)C2)ccn1", "note": "[Compound 206]", "IC50": 1.6}
{"smiles": "CCc1cc(N2CC3(CCCN(c4nc(-c5cc(Cl)cc(Cl)c5)no4)C3)C2)ccn1", "note": "[Compound 207]", "IC50": 0.4}
{"smiles": "O=c1cc(N2CC3(CCCN(c4nc(-c5cc(Cl)cc(Cl)c5)no4)C3)C2)cc[nH]1", "note": "[Compound 208]", "IC50": 5}
{"smiles": "Cc1cc(N2CCCC3CN(c4nc(-c5cc(Cl)cc(Cl)c5)no4)CC32)ccn1", "note": "(centres unmarked) [Compound 210]", "IC50": 35}
{"smiles": "Cc1cc(N2CCC(C)(Nc3nc(-c4cc(Cl)cc(Cl)c4)no3)C2)ccn1", "note": "(centres unmarked) [Compound 211]", "IC50": 24}
{"smiles": "Cc1cc(N2CC3CCN(c4nc(-c5cc(Cl)cc(Cl)c5)no4)C3C2)ccn1", "note": "(centres unmarked) [Compound 212]", "IC50": 24}
{"smiles": "Cc1cc(N2CCC3C2CCCN3c2nc(-c3cc(Cl)cc(Cl)c3)no2)ccn1", "note": "(centres unmarked) [Compound 213]", "IC50": 1}
{"smiles": "Cc1cc(N2CCC3(CC2)CCN(c2nc(-c4cc(Cl)cc(Cl)c4)no2)C3)ccn1", "note": "[Compound 214]", "IC50": 0.464}
{"smiles": "Cc1cc(N2CCC(CNc3nc(-c4cc(Cl)cc(Cl)c4)no3)C2)ccn1", "note": "(centres unmarked) [Compound 215]", "IC50": 11}
{"smiles": "Cc1cc(N2CCC3(CCCN(c4nc(-c5cc(Cl)cc(Cl)c5)no4)C3)CC2)ccn1", "note": "[Compound 216]", "IC50": 0.246}
{"smiles": "Cc1cc(N2CC[C@H](Nc3nc(-c4cc(Cl)cc(Cl)c4)no3)C[C@@H]2C)ccn1", "note": "[Compound 217]", "IC50": 29.2}
{"smiles": "Cc1cc(N2CCC3C(CCN3c3nc(-c4cc(Cl)cc(Cl)c4)no3)C2)ccn1", "note": "(centres unmarked) [Compound 218]", "IC50": 35.5}
{"smiles": "Cc1cc(N2CCC3CN(c4nc(-c5cc(Cl)cc(Cl)c5)no4)CC3C2)ccn1", "note": "(centres unmarked) [Compound 219]", "IC50": 4.3}
{"smiles": "Cc1cc(NCC2=CCCN(c3nc(-c4cc(Cl)cc(Cl)c4)no3)C2)ccn1", "note": "[Compound 220]", "IC50": 9.2}
{"smiles": "Cc1cc(NCC2CCCN(c3nc(-c4cc(Cl)cc(Cl)c4)no3)C2)ccn1", "note": "(centres unmarked) [Compound 221]", "IC50": 5.38}
{"smiles": "Cc1cc(NC(C)C2CCN(c3nc(-c4cc(Cl)cc(Cl)c4)no3)C2)ccn1", "note": "(centres unmarked) [Compound 222]", "IC50": 13.8}
{"smiles": "Cc1cc(N2CCC3(CCCN(c4nc(-c5cc(Cl)cc(Cl)c5)no4)C3)C2)ccn1", "note": "(centres unmarked) [Compound 223]", "IC50": 12.1}
{"smiles": "Cc1cc(N2CCC(Nc3nc(-c4cc(Cl)cc(Cl)c4)no3)CC2)ccn1", "note": "[Compound 225]", "IC50": "≥ 50"}
{"smiles": "Cc1cc(NC(C)C2CCN(c3nc(-c4cc(Cl)cc(Cl)c4)no3)C2)ccn1", "note": "(centres unmarked) [Compound 227]", "IC50": 35.5}
{"smiles": "Cc1cc(N2CC3C(C2)C3Nc2nc(-c3cc(Cl)cc(Cl)c3)no2)ccn1", "note": "(centres unmarked) [Compound 228]", "IC50": 34.3}
{"smiles": "Cc1cc(N2CCC3(CCC3Nc3nc(-c4cc(Cl)cc(Cl)c4)no3)CC2)ccn1", "note": "(centres unmarked) [Compound 230]", "IC50": 11.5}
{"smiles": "Cc1cc(N2CCCC3(CCN3c3nc(-c4cc(Cl)cc(Cl)c4)no3)C2)ccn1", "note": "(centres unmarked) [Compound 231]", "IC50": 37.3}
{"smiles": "N#Cc1cncc(N2CC3(CCCN(c4nc(-c5cc(Cl)cc(Cl)c5)no4)C3)C2)c1", "note": "[Compound 232]", "IC50": 2}
{"smiles": "Cc1cc(N2CCC(CNc3nc(-c4cc(Cl)cc(Cl)c4)no3)CC2)ccn1", "note": "[Compound 233]", "IC50": 2.75}
{"smiles": "Cc1cc(N2CC3(CC(Nc4nc(-c5cc(Cl)cc(Cl)c5)no4)C3)C2)ccn1", "note": "[Compound 234]", "IC50": 8.03}
{"smiles": "Cc1cc(N2CC[C@H](CNc3nc(-c4cc(Cl)cc(Cl)c4)no3)C2)ccn1", "note": "[Compound 235]", "IC50": 29.5}
{"smiles": "COc1cccc(-c2noc(N3CCCC4(CCN(c5ccnc(C)c5)CC4)C3)n2)c1", "note": "[Compound 236]", "IC50": 0.4}
{"smiles": "COc1cc(OC)cc(-c2noc(N3CCCC4(CCN(c5ccncc5OC)CC4)C3)n2)c1", "note": "[Compound 237]", "IC50": 7.3}
{"smiles": "Cc1cc(NC(=O)C2CCN(c3nc(-c4cc(Cl)cc(Cl)c4)no3)CC2)ccn1", "note": "[Compound 238, 1-(3-(3,5-dichlorophenyl)-1,2,4-oxadiazol-5-yl)-N-(2-methylpyridin-4-yl)piperidine-4-carboxamide]", "IC50": "≥ 50"}
